Laboratory results published in EP0498680A1, “New beta-amino-alpha-hydroxycarboxylic acids and their use” (Sankyo Company Limited, priority 1991, dated 1992).

Test system: HIV
Assay: Inhibition of HIV proliferation in CEM cells
Assay type: cell-based
Settings: 1 µM (0.6 µg/ml) of the test compound, 1 week
Protocol: CEM cells were inoculated in growth medium as defined in a) above, to a density of 2 x 10⁴ cells/ml. The inoculum was then seeded with a similar volume of serial 1 : 3 dilutions of the viral stock [a filtered preparation of the 48-hour culture supernatant of Molt4/HTLVIIIB cells prepared as described in Test Example 3 a) above]. The seeded inoculum was then cultured at 37°C under a 5% carbon dioxide atmosphere in the presence of 1 µM of the test compound (compound no. 14). After 1 week, the culture was spun down and the supernatant was collected. HIV antigen in the supernatant was determined as described in b) above.

(2S,3S)-[3-(N-3′-Hydroxyquinoxaline-2′-carbonyl-L-asparaginyl)amino-2-hydroxy-4-phenylbutyryl]-L-proline t-butyl ester [Compound No. 14]
spread of HIV (HIV antigen in the supernatant): sufficient to block the spread of HIV almost completely
